The source of these data is patent US20140044779A1, “Liquid Carrier for Oral Delivery of a Pharmacologically Active Agent” (LIPIDOR AB, priority 2011, published 2014).

The series is described as follows: Storage stability of dispersions of solid powderous agents in vehicles. It counts as physicochemical. The following applies: as little as. The source says: Depending on the chemical and physical nature of the solid and its particle size, a minimum amount of the solid is required to form the stable suspension of the invention. For a given substance of given physical and chemical nature as well of particle size, this minimum amount can be easily determined by experimentation, which is within the reach of a person skilled in the art. With some substances, such as hydrocortisone, stable suspensions are obtained by incorporating as little as 3% by weight of the substance into the fluid carrier. A preferred average particle size (with 50% or more of the particles being below average) is one of less than 550 μm or 250 μm, in particular of less than 100 μm or 20 μm, most preferred of less than 5 μm or 2 μm. The stabilizing effect of the particulate solid of the invention can also be obtained by a mixture of particulate substances, such as a particulate pharmacologically or cosmetically active agent, for instance hydrocortisone, and a particulate pharmaceutically or cosmetically acceptable excipient, such as microcrystalline cellulose. The powderous agents used are practically insoluble in the vehicles.

Turning to `C[C@]12CCC(=O)C=C1CC[C@@H]1[C@@H]2[C@@H](O)C[C@@]2(C)[C@H]1CC[C@]2(O)C(=O)CO` [hydrocortisone, Hydrocortisone], the “amount of substance incorporated into the fluid carrier at which stable suspensions are obtained” value turned out to be 3 % by weight.
